Measurements as given in patent US20240085425A1, “BIOMARKER AND APPLICATION THEREOF” (ADLAI NORTYE BIOPHARMA CO., LTD., priority 2022, published 2024).
pIC50: −log10 of the molar value.

Tests used:
Assay in all cases: Tumor cell proliferation inhibition (Promega cell viability, 72 h)
Type in all cases: cell-based
DLD1 = settings: Homo sapiens, DLD-1, DLD1 cells, read-out: Anti-proliferation IC50
Protocol: (§1) The cell lines used in the experiment are various tumor cells, including DU4475, Colo205, HepG2, PLC/PRF/5, BT-20, LS174T, NCI-H929, HCT116, SW620, SK-CO-1, SW480, DLD1, HT-29, SW900, SW1417, HuH7, H2009, PANC-1, SW48, Duadi, H358, HCT15, 22Rv1, Hela, RKO, Raji, Jurkat, NCI-H716, MDA-MB-231, NCI-H157 and THP1, and the inhibitory effect of the compound of the present disclosure on the proliferation of these tumor cells is determined, in order to screen out sensitive cell types of the compound of the present disclosure.
(§2) DU4475, Colo205, HepG2, PLC/PRF/5, BT-20, LS174T, NCI-H929, HCT116, SW620, SK-CO-1, SW480, DLD1, HT-29, SW900, SW1417, HuH7, H2009, PANC-1, SW48, Duadi, H358, HCT15, 22Rv1, Hela, RKO, Raji, Jurkat, NCI-H716, MDA-MB-231, NCI-H157 and THP1 cell lines cultured in each medium were treated during the logarithmic growth phase, and the cells were collected and prepared into a uniform cell suspension of known concentration, and then added to the 96-well cell culture plate to make each well contain 1000 cells. Put it into a 5% CO2 incubator and incubate at 37° C. for 20-24 h. The next day, the fully dissolved 3-fold gradient diluted compound was added to each cell culture well, so that the final maximum concentration in the cell culture well was 20 μM, and the culture was continued for 72 hours. In this test, Promega's cell viability detection test is used for detection. The more the cells proliferate, the stronger the final signal intensity will be. The detection instrument is SpectraMax, full wavelength mode. The wells with only DMSO added were used as positive control wells, and the wells without cells inoculated were used as negative control wells. The IC50 value of each compound for different cell proliferation inhibition was calculated to evaluate the inhibitory effect of the compound on different tumor cells.

HCT15 = settings: Homo sapiens, HCT-15, HCT15 cells, read-out: Anti-proliferation IC50
Protocol: as §1, §2

H358 = settings: Homo sapiens, NCI-H358, H358 cells, read-out: Anti-proliferation IC50
Protocol: as §1, §2

NCI-H716 = settings: Homo sapiens, NCI-H716 cells, read-out: Anti-proliferation IC50
Protocol: as §1, §2

SW900 = settings: Homo sapiens, SW900 cells, read-out: Anti-proliferation IC50
Protocol: as §1, §2

HT-29 = settings: Homo sapiens, HT-29 cells, read-out: Anti-proliferation IC50
Protocol: as §1, §2

Duadi = Duadi cells, read-out: Anti-proliferation IC50
Protocol: as §1, §2

SK-CO-1 = settings: Homo sapiens, SK-CO-1 cells, read-out: Anti-proliferation IC50
Protocol: as §1, §2

THP1 = settings: Homo sapiens, THP-1, THP1 cells, read-out: Anti-proliferation IC50
Protocol: as §1, §2

SW48 = settings: Homo sapiens, SW48 cells, read-out: Anti-proliferation IC50
Protocol: as §1, §2

BT-20 = settings: Homo sapiens, BT-20 cells, read-out: Anti-proliferation IC50
Protocol: as §1, §2

MDA-MB-231 = settings: Homo sapiens, MDA-MB-231 cells, read-out: Anti-proliferation IC50
Protocol: as §1, §2

SW480 = settings: Homo sapiens, SW480 cells, read-out: Anti-proliferation IC50
Protocol: as §1, §2

RKO = settings: Homo sapiens, RKO cells, read-out: Anti-proliferation IC50
Protocol: as §1, §2

Colo205 = settings: Homo sapiens, COLO 205, Colo205 cells, read-out: Anti-proliferation IC50
Protocol: as §1, §2

H2009 = settings: Homo sapiens, NCI-H2009, H2009 cells, read-out: Anti-proliferation IC50
Protocol: as §1, §2

LS174T = settings: Homo sapiens, LS174T cells, read-out: Anti-proliferation IC50
Protocol: as §1, §2

SW620 = settings: Homo sapiens, SW-620, SW620 cells, read-out: Anti-proliferation IC50
Protocol: as §1, §2

PANC-1 = settings: Homo sapiens, PANC-1 cells, read-out: Anti-proliferation IC50
Protocol: as §1, §2

DU4475 = settings: Homo sapiens, DU-4475, DU4475 cells, read-out: Anti-proliferation IC50
Protocol: as §1, §2

| pIC50 (DLD1) | pIC50 (HCT15) | pIC50 (H358) | pIC50 (NCI-H716) | pIC50 (SW900) | pIC50 (HT-29) | pIC50 (Duadi) | pIC50 (SK-CO-1) | pIC50 (THP1) | pIC50 (SW48) | pIC50 (BT-20) | pIC50 (MDA-MB-231) | pIC50 (SW480) | pIC50 (RKO) | pIC50 (Colo205) | pIC50 (H2009) | pIC50 (LS174T) | pIC50 (SW620) | pIC50 (PANC-1) | pIC50 (DU4475) | SMILES |
| --- | --- | --- | --- | --- | --- | --- | --- | --- | --- | --- | --- | --- | --- | --- | --- | --- | --- | --- | --- | --- |
| 6.50 | < 5.00 | < 5.00 | < 5.00 | 7.58 | 6.45 | < 5.00 | 6.55 | < 5.00 | < 5.00 | 7.66 | < 5.00 | 6.52 | < 5.00 | 8.05 | 7.04 | 7.58 | 6.55 | 7.32 | 8.10 | Cc1nc(C(F)(F)F)ncc1Oc1ccc(CNc2nc(C)c3c(n2)N(C)[C@@H](C)C(=O)N3)cn1 [AN10250484] |
| 7.02 | < 5.00 | < 5.00 | < 5.00 | 7.24 | 6.88 | < 5.00 | 6.47 | < 5.00 | < 5.00 | 6.87 | < 5.00 | 6.52 | < 5.00 | 7.37 | 6.67 | 6.99 | 7.00 | 6.85 | 7.43 | [2H]C([2H])([2H])N1c2nc(NCc3ccc(Oc4cnc(C(F)(F)F)nc4)nc3)nc3c2N(CCC3)C(=O)[C@]1(C)CO [AN10250399] |
